Patent US7186817B2, “Polynucleotides encoding phytase polypeptides” (Forskningscenter Riso, priority 2000, dated 2007)

What was measured:
[1] = system: phytase activity of fraction F1; settings: fraction F1, pH optimum 5.6; cited from earlier work
soybean phytase = settings: cited from earlier work
[2] = system: earlier described phytase activity (wheat bran); settings: activity with optimum at about pH 5.0; cited from earlier work
[3] = Determination of the isoelectric point (non-denaturing isoelectric focusing); format: physicochemical; settings: visualised with 1-naphtylphosphate and Farst Garnet GBC
Procedure: FIG. 5: depicts the isoelectric focusing of the purified wheat bran phytase. A double band at pH 7.4 is visible after incubation with 1-naphtylphosphate and Farst Garnet GBC.
Proteins were focused at 11° C. for a total of 2.5 kVh in non-denaturing isoelectric-focusing polyacrylamid gels (IEF)(Ampholine PAGplate pH 3.5–9.5 (Pharmacia)). An IEF calibration kit (Pharmacia) was applied to determine the pH-gradient across the gel. The IEF markers were visualised by Coomassie staining according to the recommendations of the manufacturer. The presence of acid phosphatase was identified by incubation of the gel at 37° C. in 100 ml 0.05M citrate, pH 4.5 with 50 mg Na-1-naphtyl phosphate (Merck 6815), 25 mg Farst Garnet GBC (Sigma F-8761) and 0.5 ml 10% MgCl.

## phosphate
[1]
  inhibition of activity by phosphate: inhibited
Soybean phytase; 0.5 μM phosphate
  enzyme active: 67%
Soybean phytase; read-out: apparent Ki, product inhibition by phosphate
  Ki: 18 µM
[2]
  inhibition of activity by phosphate: not inhibited at all

B1: wheat bran phytase: phytase purified from wheat bran according to the invention (SEQ ID NO: 7) (protein, listed as Triticum aestivum)
chain: MWMWRGSLPLLLLAAAVAAAAEPASTLEGPSRPVTVPLREDRGHAVDLPDTDPRVQRRVTGWAPEQIAVALSAAPTSAWVSWITGDFQMGGAVKPLDPGTVGSVVRYGLAADSLVREATGDALVYSQLYPFEGLQNYTSGIIHHVRLQGLEPGTKYYYQCGDPAIPGAMSAVHAFRTMPAVGPRSYPGRIAVVGDLGLTYNTTSTVDHMASNRPDLVLLVGDVCYANMYLTNGTGADCYSCAFGKSTPIHETYQPRWDYWGRYMEAVTSGTPMMVVEGNHEIEEQIGNKTFAAYRSRFAFPSTESGSFSPFYYSFDAGGIHFLMLGAYADYGRSGEQYRWLEKDLAKVDRSVTPWLVAGWHAPWYTTYKAHYREVECMRVAMEELLYSHGLDIAFTGHVHAYERSNRVFNYTLDPCGAVHISVGDGGNREKMATTHADEPGHCPDPRPKPNAFIGGFCAFNFTSGPAAGRFCWDRQPDYSAYRESSFGHGILEVKNETHALWRWHRNQDMYGSAGDEIYIVREPHRCLHKHNWTRPAHGP
[3]
  isoelectric focusing, double band at pH: 7.4 pH
